Tested on: Lactobacillus paracasei viro-01
Test: Antibiotic sensitivity test (disc)
Format: cell-based
Settings: for growth-inhibition zone: Mueller Hinton agar, 37° C., 16 hours; for resistance of Lactobacillus paracasei viro-01 to the antibiotic: judged by the zone limits printed per antibiotic (resistant/moderate/sensitive)
Method: Antibiotic sensitivity of the Lactobacillus paracasei viro-01 of the present invention were tested. The antibiotic resistance test was carried out by Scientec Lab Center Co., Ltd.(Daejeon city, Daedeok, Korea) approved by the KFDA.
Antibiotics used were Cephalexin, Flumequine, Furazolidone, Gentamycin, Spectinomycin, Tetracycline, Tiamulin, Neomycin, Chloramphenicol and Kanamycin, and test procedures were as described below.
5 to 6 colonies of cultured Lactobacillus paracasei viro-01 were selected, inoculated into bacterial growth medium composed of peptone 10.0 g/L, beef extract 10.0 g/L, yeast extract 5.0 g/L, glucose 20.0 g/L, Tween 80 1.0 mL/L, K2HPO4 2.0 g/L, sodium acetate 5.0 g/L, triammonium citrate 2.0 g/L, MgSO4.7H2O 0.2 g/L and MnSO4.4H2O 0.2 g/L and incubated at 37° C. Turbidity of said culture was adjusted to MacFarland No. 0.5, and used as test bacteria solution. Said test bacteria solution was smeared on Mueller Hinton agar plates and antibiotic sensitivity test disc was added thereto and incubated at 37° C. for 16 hours.
Antibiotic sensitivity was determined by measuring the area of growth inhibition surrounding each test disc.

Molecule | growth-inhibition zone (content 10 μg/disc) [mm] | resistance of Lactobacillus paracasei viro-01 to the antibiotic (content 10 μg/disc) | further results
O=C(N[C@H](CO)[C@H](O)c1ccc([N+](=O)[O-])cc1)C(Cl)Cl [chloramphenicol, Chloramphenicol] | – | – | growth-inhibition zone (content 30 μg/disc): 30 mm; resistance of Lactobacillus paracasei viro-01 to the antibiotic (content 30 μg/disc): none; resistance of Lactobacillus paracasei viro-01 to the antibiotic (content 30 μg/disc, listed as Chloramphenicol): no resistance
CC1CCc2cc(F)cc3c(=O)c(C(=O)O)cn1c23 (centres unmarked) [flumequine, Flumequine] | 0 | strong | resistance of Lactobacillus paracasei viro-01 to the antibiotic (content 10 μg/disc, listed as Flumequine): resistance
O=C1OCCN1/N=C/c1ccc([N+](=O)[O-])o1 [furazolidone, Furazolidone] | 0 | strong | resistance of Lactobacillus paracasei viro-01 to the antibiotic (content 10 μg/disc, listed as Furazolidone): resistance
NC[C@H]1O[C@H](O[C@H]2[C@H](O)[C@@H](O[C@H]3O[C@H](CO)[C@@H](O)[C@H](N)[C@H]3O)[C@H](N)C[C@@H]2N)[C@H](O)[C@@H](O)[C@@H]1O [kanamycin, Kanamycin] | 9 | – | –
CC1=C(C(=O)O)N2C(=O)[C@@H](NC(=O)[C@H](N)c3ccccc3)[C@H]2SC1 [sephalexin, Cephalexin] | 0 | strong | resistance of Lactobacillus paracasei viro-01 to the antibiotic (content 10 μg/disc, listed as Cephalexin): resistance
CN[C@@H]1[C@H](O)[C@H](NC)[C@H]2O[C@@]3(O)C(=O)C[C@@H](C)O[C@H]3O[C@@H]2[C@H]1O [spectinomycin, Spectinomycin] | 0 | strong | resistance of Lactobacillus paracasei viro-01 to the antibiotic (content 10 μg/disc, listed as Spectinomycin): resistance
CN(C)[C@@H]1C(O)=C(C(N)=O)C(=O)[C@@]2(O)C(O)=C3C(=O)c4c(O)cccc4[C@@](C)(O)[C@H]3C[C@@H]12 [tetracycline, Tetracycline] | – | – | growth-inhibition zone (content 30 μg/disc): 30 mm
C=C[C@]1(C)C[C@@H](OC(=O)CSCCN(CC)CC)[C@]2(C)[C@H](C)CC[C@]3(CCC(=O)[C@H]32)[C@@H](C)[C@@H]1O [tiamulin, Tiamulin] | 28 | none | resistance of Lactobacillus paracasei viro-01 to the antibiotic (content 10 μg/disc, listed as Tiamulin): no resistance
Gentamycin | 13 | moderate | resistance of Lactobacillus paracasei viro-01 to the antibiotic (content 10 μg/disc, listed as Gentamycin): moderate resistance
Neomycin | 13 | moderate | resistance of Lactobacillus paracasei viro-01 to the antibiotic (content 10 μg/disc, listed as Neomycin): moderate resistance
